What is called pIC50 is the negative decadic logarithm of the IC50, by convention in mol/L. Read a high pIC50 as a small IC50.

IC50 data for 11 compounds are collected here from ChEMBL document CHEMBL1131688, “Solution-phase and solid-phase synthesis of novel transition state inhibitors of coagulation enzymes incorporating a piperidinyl moiety” (Bioorg Med Chem Lett, 1999).

pIC50: −log10 of the molar value.

Assay [1] concerns the target T1, Coagulation factor X (Homo sapiens, UniProt P00742). The assay is described as follows: Inhibitory activity against Coagulation factor X with respect to Argatroban.
For assay [2], the target named is Prothrombin (Homo sapiens, UniProt P00734). Put plainly: Inhibitory activity against thrombin with respect to Argatroban.
Assay [3] concerns the target T1, Coagulation factor X. The assay is described as follows: Inhibitory activity against Coagulation factor X.

T1 sequence (P00742 41-179 limits assumed): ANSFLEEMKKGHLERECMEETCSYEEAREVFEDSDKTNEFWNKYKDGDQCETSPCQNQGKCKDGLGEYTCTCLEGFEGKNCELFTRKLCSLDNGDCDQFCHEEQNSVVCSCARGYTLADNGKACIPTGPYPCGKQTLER
T1 sequence (P00742 235-488 limits assumed): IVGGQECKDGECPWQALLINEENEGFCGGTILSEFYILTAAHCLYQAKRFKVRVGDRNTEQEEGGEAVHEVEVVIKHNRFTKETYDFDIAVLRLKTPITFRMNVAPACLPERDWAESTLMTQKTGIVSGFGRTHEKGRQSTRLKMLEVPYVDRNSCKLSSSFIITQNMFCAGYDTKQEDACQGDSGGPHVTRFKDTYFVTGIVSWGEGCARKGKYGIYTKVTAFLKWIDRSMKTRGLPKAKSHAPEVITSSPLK

Regarding `O=C(Cn1cccc(NS(=O)(=O)Cc2ccccc2)c1=O)N[C@@H](CC1CCNCC1)C(=O)C(=O)NCc1ccccc1`, the negative-log IC50 (pIC50) is 5.44 in assay [1] and 6.23 in assay [2].

Consider `CN(CC(=O)NC(CC1CCNCC1)C(=O)c1nccs1)C(=O)[C@@H](CC1CCCCC1)NCC(=O)O` (stereo partly specified), for which the negative logarithm of the IC50 (pIC50) in assay [1] was 6.37; in assay [2] it was 5.32.

Turning to `CCS(=O)(=O)N[C@H](CC1CCCCC1)C(=O)N1CCC[C@H]1C(=O)NC(CC1CCNCC1)C(=O)c1nccs1` (stereo partly specified), the values for the negative logarithm of the IC50 (pIC50) in assay [1] and in assay [2] were 5.39 and 6.80, respectively.

As for `O=C(NCc1ccccc1)C(=O)[C@H](CC1CCNCC1)NC(=O)[C@H]1CCCN1C(=O)[C@@H]1NCC[C@H]2CCCC[C@H]21`, the figures for the pIC50 in assay [1] and in assay [2] were 5.54 and 7.32, respectively.

Take `CCS(=O)(=O)N[C@H](CC1CCCCC1)C(=O)N1CCC[C@H]1C(=O)NC(CC1CCNCC1)C(=O)C(=O)O` (stereo partly specified): the figures for the pIC50 in assay [1] and in assay [2] were 4.80 and 6.66, respectively.

For the compound `O=C(O)CN[C@H](CC1CCCCC1)C(=O)NCC(=O)NC(CC1CCNCC1)C(=O)c1nccs1` (stereo partly specified), the pIC50 is 5.96 in assay [1] and 4.71 in assay [2].

In the case of `CCS(=O)(=O)N[C@H](CC1CCCCC1)C(=O)N1CCC[C@H]1C(=O)N[C@@H](CC1CCNCC1)C(=O)c1nccs1`, the pIC50 in assay [1] is 5.60; in assay [2] it was 6.92.

Consider `O=C(CN1CCCCC(NS(=O)(=O)Cc2ccccc2)C1=O)N[C@@H](CC1CCNCC1)C(=O)C(=O)NCc1ccccc1` (stereo partly specified), for which the pIC50 in assay [1] was 5.28; in assay [2], 5.85.

On to `O=C(NCc1ccccc1)C(=O)[C@H](CC1CCNCC1)NC(=O)[C@H]1CCCN1C(=O)CC(c1ccccc1)c1ccccc1`, for which the negative-log IC50 (pIC50) in assay [1] is 4.27; in assay [2], 6.59.

`O=C(O)CN[C@H](CC1CCCCC1)C(=O)N[C@@H](Cc1ccccc1)C(=O)NC(CC1CCNCC1)C(=O)c1nccs1` (stereo partly specified): the figures for the pIC50 in assay [1] and in assay [2] were 5.11 and 5.51, respectively.

In the case of `CC1CNc2c(cccc2S(=O)(=O)N[C@@H](CCCNC(=N)N)C(=O)N2CCC(C)C[C@@H]2C(=O)O)C1` (single isomer, unassigned) [ARGATROBAN], the negative-log IC50 (pIC50) in assay [3] was 3.87.
